According to PubChem BioAssay (NCI):
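These data come from cells grown in 96-well plates and exposed to compound for 48 hours at five concentrations. TGI: total growth inhibition.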

Assays:
Test in all cases: DTP human tumour cell line panel, 48 h
786-0 renal = tested on: 786-0 renal
A498 renal = tested on: A498 renal
A549 NSCLC = tested on: A549 NSCLC
ACHN renal = tested on: ACHN renal
BT-549 breast = tested on: BT-549 breast
CAKI-1 renal = tested on: CAKI-1 renal
CCRF-CEM leukemia = tested on: CCRF-CEM leukemia
COLO 205 colon = tested on: COLO 205 colon
DU-145 prostate = tested on: DU-145 prostate
EKVX NSCLC = tested on: EKVX NSCLC
HCC-2998 colon = tested on: HCC-2998 colon
HCT-116 colon = tested on: HCT-116 colon
HCT-15 colon = tested on: HCT-15 colon
HL-60(TB) leukemia = tested on: HL-60(TB) leukemia
HOP-62 NSCLC = tested on: HOP-62 NSCLC
HOP-92 NSCLC = tested on: HOP-92 NSCLC
HS 578T breast = tested on: HS 578T breast
HT29 colon = tested on: HT29 colon
IGROV1 ovarian = tested on: IGROV1 ovarian
K-562 leukemia = tested on: K-562 leukemia
KM12 colon = tested on: KM12 colon
M14 melanoma = tested on: M14 melanoma
MALME-3M melanoma = tested on: MALME-3M melanoma
MCF7 breast = tested on: MCF7 breast
MDA-MB-231 breast = tested on: MDA-MB-231 breast
MDA-MB-435 = tested on: MDA-MB-435
MDA-N = tested on: MDA-N
MOLT-4 leukemia = tested on: MOLT-4 leukemia
NCI-H226 lung = tested on: NCI-H226 lung
NCI-H23 lung = tested on: NCI-H23 lung
NCI-H460 lung = tested on: NCI-H460 lung
NCI-H522 lung = tested on: NCI-H522 lung
NCI/ADR-RES ovarian = tested on: NCI/ADR-RES ovarian
OVCAR-3 ovarian = tested on: OVCAR-3 ovarian
OVCAR-4 ovarian = tested on: OVCAR-4 ovarian
OVCAR-5 ovarian = tested on: OVCAR-5 ovarian
OVCAR-8 ovarian = tested on: OVCAR-8 ovarian
PC-3 prostate = tested on: PC-3 prostate
RPMI-8226 leukemia = tested on: RPMI-8226 leukemia
RXF 393 renal = tested on: RXF 393 renal
SF-268 CNS = tested on: SF-268 CNS
SF-295 CNS = tested on: SF-295 CNS
SF-539 CNS = tested on: SF-539 CNS
SK-MEL-2 melanoma = tested on: SK-MEL-2 melanoma
SK-MEL-28 melanoma = tested on: SK-MEL-28 melanoma
SK-MEL-5 melanoma = tested on: SK-MEL-5 melanoma
SK-OV-3 ovarian = tested on: SK-OV-3 ovarian
SN12C renal = tested on: SN12C renal
SNB-19 CNS = tested on: SNB-19 CNS
SNB-75 CNS = tested on: SNB-75 CNS
SR leukemia = tested on: SR leukemia
SW-620 colon = tested on: SW-620 colon
T-47D breast = tested on: T-47D breast
TK-10 renal = tested on: TK-10 renal
U251 CNS = tested on: U251 CNS
UACC-257 melanoma = tested on: UACC-257 melanoma
UACC-62 melanoma = tested on: UACC-62 melanoma
UO-31 renal = tested on: UO-31 renal

SMILES: CN(C)CCNS(=O)(=O)c1ccc(N)cc1
- TGI (786-0 renal): > 100 µM
- TGI (A498 renal): > 100 µM
- TGI (A549 NSCLC): > 100 µM
- TGI (ACHN renal): > 100 µM
- TGI (BT-549 breast): > 100 µM
- TGI (CAKI-1 renal): > 100 µM
- TGI (CCRF-CEM leukemia): > 100 µM
- TGI (COLO 205 colon): > 100 µM
- TGI (DU-145 prostate): > 100 µM
- TGI (EKVX NSCLC): > 100 µM
- TGI (HCC-2998 colon): > 100 µM
- TGI (HCT-116 colon): > 100 µM
- TGI (HCT-15 colon): > 100 µM
- TGI (HL-60(TB) leukemia): > 100 µM
- TGI (HOP-62 NSCLC): 32.4 µM
- TGI (HOP-92 NSCLC): > 100 µM
- TGI (HS 578T breast): > 100 µM
- TGI (HT29 colon): > 100 µM
- TGI (IGROV1 ovarian): > 100 µM
- TGI (K-562 leukemia): > 100 µM
- TGI (KM12 colon): > 100 µM
- TGI (M14 melanoma): > 100 µM
- TGI (MALME-3M melanoma): > 100 µM
- TGI (MCF7 breast): > 100 µM
- TGI (MDA-MB-231 breast): > 100 µM
- TGI (MDA-MB-435): > 100 µM
- TGI (MDA-N): > 100 µM
- TGI (MOLT-4 leukemia): > 100 µM
- TGI (NCI-H226 lung): > 100 µM
- TGI (NCI-H23 lung): > 100 µM
- TGI (NCI-H460 lung): > 100 µM
- TGI (NCI-H522 lung): > 100 µM
- TGI (NCI/ADR-RES ovarian): > 100 µM
- TGI (OVCAR-3 ovarian): 31 µM
- TGI (OVCAR-4 ovarian): > 100 µM
- TGI (OVCAR-5 ovarian): > 100 µM
- TGI (OVCAR-8 ovarian): > 100 µM
- TGI (PC-3 prostate): 34 µM
- TGI (RPMI-8226 leukemia): > 100 µM
- TGI (RXF 393 renal): > 100 µM
- TGI (SF-268 CNS): > 100 µM
- TGI (SF-295 CNS): > 100 µM
- TGI (SF-539 CNS): > 100 µM
- TGI (SK-MEL-2 melanoma): 31.9 µM
- TGI (SK-MEL-28 melanoma): > 100 µM
- TGI (SK-MEL-5 melanoma): > 100 µM
- TGI (SK-OV-3 ovarian): > 100 µM
- TGI (SN12C renal): > 100 µM
- TGI (SNB-19 CNS): > 100 µM
- TGI (SNB-75 CNS): > 100 µM
- TGI (SR leukemia): > 100 µM
- TGI (SW-620 colon): > 100 µM
- TGI (T-47D breast): > 100 µM
- TGI (TK-10 renal): > 100 µM
- TGI (U251 CNS): > 100 µM
- TGI (UACC-257 melanoma): > 100 µM
- TGI (UACC-62 melanoma): > 100 µM
- TGI (UO-31 renal): > 100 µM
